These results are taken from patent US20190076496A1, “POLYSACCHARIDE DIGESTION INHIBITOR” (Q' SAI CO., LTD., priority 2016, published 2019).

What all share (type): in vivo
For test [1], the system named is GK rat (Goto-Kakizaki rat). Nature of the test: Measurement of blood glucose level after loading sucrose. The following applies: 90 minutes after sucrose 2 g/kg; acarbose 10 mg/kg oral. As to the method:
Each GK rat was fasted for 18 hours and its fasting blood glucose level was then measured. Thereafter, the test substance was orally administered to the rat using a disposable gastric probe and a disposable syringe. Two minutes after the administration of the test substance, starch (dissolved in purified water, at 2 g/kg body weight) was administered in a single oral dose. Blood was collected from the tail vein 30, 60, 90 and 120 minutes after the administration of starch, and the blood glucose level was measured using a simple type blood glucose meter (NIPRO Freestyle Freedom Lite, FS Blood Glucose Sensor Light, manufactured by Nipro Corporation).
As described above, since the digestion process from starch to dextrose depends on the enzyme activities of both α-amylase and α-glucosidase, it cannot be ruled out from the results of Test Example 3 that the Astilbe thunbergii extract might inhibit only one of the enzyme activities in the body of an animal (the activity of the other enzyme activity cannot be inhibited). Accordingly, the digestion inhibitory effect of Astilbe thunbergii extract was analyzed using sucrose for which the digestion process depends only on α-glucosidase. Specifically, in the Approach 4, the blood glucose was measured using “sucrose (dissolved in purified water, at 2 g/kg body weight)” instead of “starch (dissolved in purified water, at 2 g/kg body weight)”. […]

For test [2], the system named is GK rat (Goto-Kakizaki rat). Put plainly: Measurement of blood glucose level after loading starch. The following applies: 60 minutes after starch 2 g/kg; acarbose 10 mg/kg body weight oral. As to the method:
Each GK rat (Goto-Kakizaki rat) was allowed to orally ingest an Astilbe thunbergii extract and immediately thereafter to orally ingest starch, and the blood glucose level up to 2 hours later was measured over time (Approach 4). In the case of a GK rat, since hyperglycemia is caused due to its low insulin secretion amount after meal, it is possible to sensitively analyze the influence of drugs on the digestion and absorption of saccharides.
[Approach 4: Measurement of Blood Glucose Level after Loading Starch]
GK rats (male, 5 weeks old) were obtained from Japan SLC, Inc. and preliminarily bred for 1 week before use. Seven rats per experimental group were used.
(1) Japanese Pharmacopeia water for injection (a negative control))
(2) A solution having acarbose dissolved in the water for injection (a positive control); administered at 10 mg/kg body weight
(3) A suspension having the hydrous ethanol extract of Astilbe thunbergii suspended in the water for injection; administered at 100 mg/kg body weight or 300 mg/kg body weight […]
Each GK rat was fasted for 18 hours and its fasting blood glucose level was then measured. […] Blood was collected from the tail vein 30, 60, 90 and 120 minutes after the administration of starch, and the blood glucose level was measured using a simple type blood glucose meter (NIPRO Freestyle Freedom Lite, FS Blood Glucose Sensor Light, manufactured by Nipro Corporation).

For test [3], the system named is GK rat (Goto-Kakizaki rat). Put plainly: Measurement of blood glucose level after loading glucose (dextrose). As to the method:
Specifically, each GK rat was allowed to orally ingest the Astilbe thunbergii extract and dextrose and its influence on a change in the blood glucose level was analyzed (Approach 5). In this analysis, an experiment group orally ingesting anagliptin, a DPP-IV inhibitor, was used as a positive control.
[Approach 5: Measurement of Blood Glucose Level after Loading Glucose]
(1) Japanese Pharmacopeia water for injection (a negative control)
(2) A solution having anagliptin dissolved in the water for injection (a positive control); administered at 10 mg/kg body weight
(3) A suspension having, the hydrous ethanol extract of Astilbe thunbergii prepared in the Test Example 2, suspended in the water for injection; administered at 100 mg/kg body weight or 300 mg/kg body weight
Administration and Measurement of Blood Glucose Level
Each GK rat (8-week-old male rat, 7 rats/experimental group) was fasted for 18 hours and its fasting blood glucose level was then measured. Thereafter, the test substance was orally administered to the rat using a disposable gastric probe and a disposable syringe. […] Blood was collected from the tail vein 30, 60, 90 and 120 minutes after the administration of dextrose, and the blood glucose level was measured using a simple type blood glucose meter (NIPRO Freestyle Freedom Lite, FS Blood Glucose Sensor Light, manufactured by Nipro Corporation).

Take `C[C@H]1O[C@H](O[C@H]2[C@H](O)[C@@H](O)[C@@H](O[C@H]3[C@H](O)[C@@H](O)C(O)O[C@@H]3CO)O[C@@H]2CO)[C@H](O)[C@@H](O)[C@@H]1N[C@H]1C=C(CO)[C@@H](O)[C@H](O)[C@H]1O` (stereo partly shown) [acarbose]: the blood glucose level in test [1] is 161 ± 45 mg/dL; in test [2] it was 117 ± 43 mg/dL.
For the molecule `Cc1cc2ncc(C(=O)NCC(C)(C)NCC(=O)N3CCC[C@H]3C#N)cn2n1` [anagliptin], in test [3] (0 to 120 minutes after dextrose, anagliptin 10 mg/kg, extract 100 or 300 mg/kg), the “glucose AUC compared with negative control” value is recorded as “significantly decreases the glucose AUC”. Besides, in test [3] (after dextrose 2 g/kg, anagliptin 10 mg/kg oral, decrease since 60 minutes later), the “time course of blood glucose level compared with negative control” value is listed as “began to decrease earlier than that in the negative control”.
